Our source for the GI50 and IC50 values is patent publication US20250179059A1 (The Regents of the University of California, priority 2021, published 2025).

The subject of experiment [1] is human SKM-1 acute myeloid leukemia cells. In words: SKM-1 antiproliferation cell-based assay (ATPlite). The note with it: Homo sapiens, SKM-1, SKM-1 antiproliferation assay. In short, it runs like this:
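Log-phase cells in RPMI 1640/15% FBS were seeded at 34722 cells/mL and exposed for 4 days to nine-concentration DMSO serial dilutions in triplicate. Viability was read as ATP luminescence (ATPlite 1step), and IC50 values came from variable-slope non-linear regression.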
(Cellular ATP, detected with luciferase, serves as a proxy for viable cell number.)

Experiment [2] has as its target T1, human BRD4 bromodomain II (Homo sapiens, UniProt O60885).
T1 construct: human BRD4 bromodomain II [based on Genbank NM_058243, residues 349-460]; host or cells: E. coli
The experiment can be described thus: Bromodomain binding assay (AlphaScreen), BRD4 BDII. Conditions: BRD4 BDII AlphaScreen assay; read-out: BRD4 BD2 IC50. In short, it runs like this:
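AlphaScreen competition with biotinylated H4 peptide (aa 1-21, K5/K8/K12/K16Ac), using nickel-chelate acceptor and streptavidin donor beads. Targets were His6-BRD4 BDI (44-170) or BDII (349-460), with a 30 min compound preincubation over a 10-point 3-fold series. IC50 was fitted from percentage peptide binding.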

Each structure is given as a SMILES string. Some results are limits rather than exact numbers.

For `COc1ncc(-c2cc(F)cc(-c3ccc(-n4ccn(C)c4=O)c(F)c3)c2O)cc1N1CCN(C(C)(C)C)CC1` [Example 939, 1-(3′-(5-(4-(tert-butyl)piperazin-1-yl)-6-methoxypyridin-3-yl)-3,5′-difluoro-2′-hydroxy-[1,1′-biphenyl]-4-yl)-3-methyl-1H-imidazol-2(3H)-one], the GI50 (usually the concentration at which growth is held to half of that of the control) in experiment [1] was 0.3 to 30 nM. Further, the IC50 (as a rule, the point on the concentration scale where inhibition reaches its midpoint) in experiment [2] was in the range of 1 to 10 nM.
Taken in the same sequence, the figures for `Cc1cc(-c2cc(F)cc(-c3cccc(N4CCN(C(C)(C)C)CC4)c3)c2O)ncc1-n1ccn(C)c1=O` [Example 940, 1-(6-(3′-(4-(tert-butyl)piperazin-1-yl)-5-fluoro-2-hydroxy-[1,1′-biphenyl]-3-yl)-4-methylpyridin-3-yl)-3-methyl-1H-imidazol-2(3H)-one] were 300 to 3000 nM and greater than 100 nM.
`COc1ncc(-c2cc(F)cc(-c3ccc(-n4c(C)cn(C)c4=O)c(Cl)c3)c2O)cc1N1CCN(C(C)(C)C)CC1` [Example 941, 3-(3′-(5-(4-(tert-butyl)piperazin-1-yl)-6-methoxypyridin-3-yl)-3-chloro-5′-fluoro-2′-hydroxy-[1,1′-biphenyl]-4-yl)-1,4-dimethyl-1H-imidazol-2(3H)-one] had a GI50 in experiment [1] of 0.3 to 30 nM. For the same compound, the IC50 in experiment [2] is 1 to 10 nM.
Taken in the same sequence, the figures for `Cn1ccn(-c2ccc(-c3cc(F)cc(-c4cc(N5CCN(C(C)(C)C)CC5)ncn4)c3O)cc2Cl)c1=O` [Example 942, 1-(3′-(6-(4-(tert-butyl)piperazin-1-yl)pyrimidin-4-yl)-3-chloro-5′-fluoro-2′-hydroxy-[1,1′-biphenyl]-4-yl)-3-methyl-1H-imidazol-2(3H)-one] were 300 to 3000 nM and greater than 100 nM.
Taken in the same sequence, the figures for `Cn1ccn(-c2ccc(-c3cc(F)cc(-c4cccc(N5CC6CNCC6C5)c4)c3O)cc2Cl)c1=O` (centres unmarked) [Example 943, 1-(3-chloro-5′-fluoro-3″-(hexahydropyrrolo[3,4-c]pyrrol-2(1H)-yl)-2′-hydroxy-[1,1′:3′,1″-terphenyl]-4-yl)-3-methyl-1,3-dihydro-2H-imidazol-2-one] were 0.3 to 30 nM and 1 to 10 nM.
The matching figures for `Cn1ccn(-c2ccc(-c3cc(F)cc(-c4cccc(N5CCN(C(C)(C)C)CC5)c4)c3O)nc2)c1=O` [Example 944, 1-(6-(3′-(4-(tert-butyl)piperazin-1-yl)-5-fluoro-2-hydroxy-[1,1′-biphenyl]-3-yl)pyridin-3-yl)-3-methyl-1H-imidazol-2(3H)-one]: 300 to 3000 nM and greater than 100 nM.
For the compound `Cn1ccn(-c2ccc(-c3cc(F)cc(-c4cccc(N5CCN(C(C)(C)C)CC5)c4)c3O)cc2F)c1=O` [Example 945, 1-(3″-(4-(tert-butyl)piperazin-1-yl)-3,5′-difluoro-2′-hydroxy-[1,1′:3′,1″-terphenyl]-4-yl)-3-methyl-1H-imidazol-2(3H)-one], the GI50 in experiment [1] lay within 0.3 to 30 nM. Besides, the IC50 in experiment [2] is 1 to 10 nM.
Taken in the same sequence, the figures for `CC(C)N1CC2CN(c3cccc(-c4cc(F)cc(-c5ccc(-n6ccn(C)c6=O)c(Cl)c5)c4O)c3)CC2C1` (centres unmarked) [Example 946, 1-(3-chloro-5′-fluoro-2′-hydroxy-3″-(5-isopropylhexahydropyrrolo[3,4-c]pyrrol-2(1H)-yl)-[1,1′:3′,1″-terphenyl]-4-yl)-3-methyl-1,3-dihydro-2H-imidazol-2-one] were 30 to 300 nM and 1 to 10 nM.
For `COc1ncc(-c2cc(F)cc(-c3ccc(-n4ccn(C)c4=O)c(C)c3)c2O)cc1N1CCN(C(C)(C)C)CC1` [Example 948, 1-(3′-(5-(4-(tert-butyl)piperazin-1-yl)-6-methoxypyridin-3-yl)-5′-fluoro-2′-hydroxy-3-methyl-[1,1′-biphenyl]-4-yl)-3-methyl-1,3-dihydro-2H-imidazol-2-one], the GI50 in experiment [1] was 0.3 to 30 nM. Besides, in experiment [2], the IC50 lay within 1 to 10 nM.
The matching figures for `Cc1cc(-c2cc(F)cc(-c3cccc(N4CCN(C(C)(C)C)CC4)c3)c2O)ccc1-n1ccn(C)c1=O` [Example 949, 1-(3″-(4-(tert-butyl)piperazin-1-yl)-5′-fluoro-2′-hydroxy-3-methyl-[1,1′:3′,1″-terphenyl]-4-yl)-3-methyl-1,3-dihydro-2H-imidazol-2-one]: 0.3 to 30 nM and 1 to 10 nM.
The matching figures for `Cn1ccn(-c2ccc(-c3cc(F)cc(-c4cccc(N5CCN(C(C)(C)C)CC5)n4)c3O)cc2Cl)c1=O` [Example 950, 1-(3′-(6-(4-(tert-butyl)piperazin-1-yl)pyridin-2-yl)-3-chloro-5′-fluoro-2′-hydroxy-[1,1′-biphenyl]-4-yl)-3-methyl-1H-imidazol-2(3H)-one]: 300 to 3000 nM and greater than 100 nM.
The matching figures for `Cn1ccn(-c2ccc(-c3cc(F)cc(-c4cccc(C5=CCN(C(C)(C)C)CC5)c4)c3O)cc2Cl)c1=O` [Example 951, 1-(3″-(1-(tert-butyl)-1,2,3,6-tetrahydropyridin-4-yl)-3-chloro-5′-fluoro-2′-hydroxy-[1,1′:3′,1″-terphenyl]-4-yl)-3-methyl-1H-imidazol-2(3H)-one]: 0.3 to 30 nM and 1 to 10 nM.
Regarding `Cn1ccn(-c2c(O)cc(-c3cc(F)cc(-c4cccc(N5CCN(C(C)(C)C)CC5)c4)c3O)cc2Cl)c1=O` [Example 952, 1-(3″-(4-(tert-butyl)piperazin-1-yl)-3-chloro-5′-fluoro-2′,5-dihydroxy-[1,1′:3′,1″-terphenyl]-4-yl)-3-methyl-1H-imidazol-2(3H)-one], the GI50 in experiment [1] lay within 300 to 3000 nM. Also, the IC50 in experiment [2] is greater than 100 nM.
In experiment [1], `Cn1ccn(-c2ccc(-c3cc(F)cc(-c4cc(N5CCN(C(C)(C)C)CC5)ccn4)c3O)cc2Cl)c1=O` [Example 953, 1-(3′-(4-(4-(tert-butyl)piperazin-1-yl)pyridin-2-yl)-3-chloro-5′-fluoro-2′-hydroxy-[1,1′-biphenyl]-4-yl)-3-methyl-1H-imidazol-2(3H)-one] registered a GI50 of 300 to 3000 nM. In experiment [2], the IC50 was greater than 100 nM.
The matching figures for `CC(C)N1CCC12CCN(c1cc(-c3cc(F)cc(-c4ccc(-n5ccn(C)c5=O)c(Cl)c4)c3O)cnc1N)C2` (centres unmarked) [Example 954, 1-(3′-(6-amino-5-(1-isopropyl-1,6-diazaspiro[3.4]octan-6-yl)pyridin-3-yl)-3-chloro-5′-fluoro-2′-hydroxy-[1,1′-biphenyl]-4-yl)-3-methyl-1H-imidazol-2(3H)-one]: 0.3 to 30 nM and 1 to 10 nM.
The matching figures for `Cc1ncc(-c2cc(F)cc(-c3ccc(-n4ccn(C)c4=O)c(Cl)c3)c2O)cc1N1CC[C@@]2(CCCN2C(C)C)C1` [Example 955, (S)-1-(3-chloro-5′-fluoro-2′-hydroxy-3′-(5-(1-isopropyl-1,7-diazaspiro[4.4]nonan-7-yl)-6-methylpyridin-3-yl)-[1,1′-biphenyl]-4-yl)-3-methyl-1,3-dihydro-2H-imidazol-2-one]: 0.3 to 30 nM and 1 to 10 nM.
The matching figures for `Cc1ncc(-c2cc(F)cc(-c3ccc(-n4ccn(C)c4=O)c(Cl)c3)c2O)cc1N1CC[C@]2(CCCN2C(C)C)C1` [Example 956, (R)-1-(3-chloro-5′-fluoro-2′-hydroxy-3′-(5-(1-isopropyl-1,7-diazaspiro[4.4]nonan-7-yl)-6-methylpyridin-3-yl)-[1,1′-biphenyl]-4-yl)-3-methyl-1,3-dihydro-2H-imidazol-2-one]: 0.3 to 30 nM and 1 to 10 nM.
On to `COc1ncc(-c2cc(F)cc(-c3ccc(-n4ccn(C)c4=O)c(Cl)c3)c2O)cc1N1CC[C@@]2(CCCN2C(C)C)C1` [Example 957, (S)-1-(3-chloro-5′-fluoro-2′-hydroxy-3′-(5-(1-isopropyl-1,7-diazaspiro[4.4]nonan-7-yl)-6-methoxypyridin-3-yl)-[1,1′-biphenyl]-4-yl)-3-methyl-1,3-dihydro-2H-imidazol-2-one], for which the GI50 in experiment [1] was 0.3 to 30 nM. In experiment [2], the IC50 lay within 0.01 to 1 nM.
The matching figures for `COc1ncc(-c2cc(F)cc(-c3ccc(-n4ccn(C)c4=O)c(Cl)c3)c2O)cc1N1CC[C@]2(CCCN2C(C)C)C1` [Example 958, (R)-1-(3-chloro-5′-fluoro-2′-hydroxy-3′-(5-(1-isopropyl-1,7-diazaspiro[4.4]nonan-7-yl)-6-methoxypyridin-3-yl)-[1,1′-biphenyl]-4-yl)-3-methyl-1,3-dihydro-2H-imidazol-2-one]: 0.3 to 30 nM and 0.01 to 1 nM.
Taken in the same sequence, the figures for `COc1ncc(-c2nc(C)cc(-c3ccc(-n4ccn(C)c4=O)c(Cl)c3)c2O)cc1N1CCN(C(C)(C)C)CC1` [Example 959, 1-(4-(5′-(4-(tert-butyl)piperazin-1-yl)-3-hydroxy-6′-methoxy-6-methyl-[2,3′-bipyridin]-4-yl)-2-chlorophenyl)-3-methyl-1,3-dihydro-2H-imidazol-2-one] were 0.3 to 30 nM and 1 to 10 nM.
The matching figures for `COc1ncc(-c2cc(F)cc(-c3ccc(-n4ccn(C)c4=O)c(Cl)c3)c2O)cc1N1CCN(C(C)(C)CO)CC1` [Example 960, 1-(3-chloro-5′-fluoro-2′-hydroxy-3′-(5-(4-(1-hydroxy-2-methylpropan-2-yl)piperazin-1-yl)-6-methoxypyridin-3-yl)-[1,1′-biphenyl]-4-yl)-3-methyl-1H-imidazol-2(3H)-one]: 0.3 to 30 nM and 1 to 10 nM.
For the compound `Cc1cc(-c2ccc(-n3ccn(C)c3=O)c(Cl)c2)c(O)c(-c2cnc(C)c(N3CCN(C(C)(C)C)CC3)c2)n1` [Example 961, 1-(4-(5′-(4-(tert-butyl)piperazin-1-yl)-3-hydroxy-6,6′-dimethyl-[2,3′-bipyridin]-4-yl)-2-chlorophenyl)-3-methyl-1H-imidazol-2(3H)-one], the GI50 in experiment [1] lay within 0.3 to 30 nM. For the same compound, the IC50 in experiment [2] was 1 to 10 nM.
